{
  "source": "the kinase profiling compilation of Christmann-Franck et al. (2016)",
  "test_in_all_cases": "KINOMEscan competition binding",
  "details_in_all_cases": "compound 10.0 µM",
  "key": {"NLK (human)": {"target": "NLK (human) (UniProt Q9UBE8)"}, "FGFR3 (human)": {"target": "FGFR3 (human) (UniProt P22607)"}, "EPHA5 (human)": {"target": "EPHA5 (human) (UniProt P54756)"}, "MELK (human)": {"target": "MELK (human) (UniProt Q14680)", "sequence (Q14680 whole entry, looked up)": "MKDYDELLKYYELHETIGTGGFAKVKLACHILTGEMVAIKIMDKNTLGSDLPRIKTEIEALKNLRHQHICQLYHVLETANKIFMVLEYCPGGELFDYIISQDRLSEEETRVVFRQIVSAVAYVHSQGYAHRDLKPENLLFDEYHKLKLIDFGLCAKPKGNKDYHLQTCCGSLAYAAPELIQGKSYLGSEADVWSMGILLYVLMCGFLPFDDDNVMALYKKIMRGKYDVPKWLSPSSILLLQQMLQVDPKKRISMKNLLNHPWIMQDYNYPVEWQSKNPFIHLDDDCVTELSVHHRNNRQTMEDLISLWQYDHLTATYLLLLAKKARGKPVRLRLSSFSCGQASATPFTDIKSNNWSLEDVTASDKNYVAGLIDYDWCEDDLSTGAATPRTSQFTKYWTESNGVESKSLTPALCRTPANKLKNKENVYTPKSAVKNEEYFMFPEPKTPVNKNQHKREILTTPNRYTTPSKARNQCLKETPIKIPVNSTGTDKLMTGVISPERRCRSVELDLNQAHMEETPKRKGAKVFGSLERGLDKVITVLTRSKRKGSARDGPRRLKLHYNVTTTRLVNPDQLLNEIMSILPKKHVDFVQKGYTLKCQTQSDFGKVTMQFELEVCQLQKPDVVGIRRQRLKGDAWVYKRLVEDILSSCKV"}, "DCLK3 (human)": {"target": "DCLK3 (human) (UniProt Q9C098)"}, "MST4 (human)": {"target": "MST4 (human) (UniProt Q9P289)", "sequence (Q9P289 whole entry, looked up)": "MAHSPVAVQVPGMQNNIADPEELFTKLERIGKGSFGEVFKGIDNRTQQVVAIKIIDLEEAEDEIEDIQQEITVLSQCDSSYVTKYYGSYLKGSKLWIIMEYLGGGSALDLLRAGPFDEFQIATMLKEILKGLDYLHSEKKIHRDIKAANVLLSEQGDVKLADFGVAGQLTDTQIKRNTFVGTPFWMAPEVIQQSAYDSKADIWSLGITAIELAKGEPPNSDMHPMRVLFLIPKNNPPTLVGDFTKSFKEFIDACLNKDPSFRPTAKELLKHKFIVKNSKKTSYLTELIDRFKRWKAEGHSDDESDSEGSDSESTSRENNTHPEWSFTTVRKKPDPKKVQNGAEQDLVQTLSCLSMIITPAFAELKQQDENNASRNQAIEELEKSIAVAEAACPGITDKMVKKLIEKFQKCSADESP"}, "INSRR (human)": {"target": "INSRR (human) (UniProt P14616)"}, "RPS6KA5 KD1 (human)": {"target": "RPS6KA5 KD1 (human) (UniProt O75582)"}, "PRKX (human)": {"target": "PRKX (human) (UniProt P51817)"}, "PLK3 (human)": {"target": "PLK3 (human) (UniProt Q9H4B4)", "sequence (Q9H4B4 whole entry, looked up)": "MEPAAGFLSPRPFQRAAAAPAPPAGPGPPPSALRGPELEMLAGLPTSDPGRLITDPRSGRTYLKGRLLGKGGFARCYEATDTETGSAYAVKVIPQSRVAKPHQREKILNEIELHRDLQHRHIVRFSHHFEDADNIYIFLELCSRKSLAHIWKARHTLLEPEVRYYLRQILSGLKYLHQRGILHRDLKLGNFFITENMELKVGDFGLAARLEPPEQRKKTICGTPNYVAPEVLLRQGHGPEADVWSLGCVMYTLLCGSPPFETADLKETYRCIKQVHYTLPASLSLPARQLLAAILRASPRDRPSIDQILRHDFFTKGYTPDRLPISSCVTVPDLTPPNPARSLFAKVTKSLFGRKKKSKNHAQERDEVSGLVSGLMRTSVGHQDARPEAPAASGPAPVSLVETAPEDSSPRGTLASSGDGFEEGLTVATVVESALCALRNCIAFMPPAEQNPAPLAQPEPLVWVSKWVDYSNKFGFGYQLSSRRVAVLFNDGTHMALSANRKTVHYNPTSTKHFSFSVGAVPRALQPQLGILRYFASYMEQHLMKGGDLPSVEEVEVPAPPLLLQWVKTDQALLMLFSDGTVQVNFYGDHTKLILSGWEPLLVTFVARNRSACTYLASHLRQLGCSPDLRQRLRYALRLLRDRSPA"}, "RPS6KA2 KD1 (human)": {"target": "RPS6KA2 KD1 (human) (UniProt Q15349)"}, "PRKACB (human)": {"target": "PRKACB (human) (UniProt P22694)"}, "TEC (human)": {"target": "TEC (human) (UniProt P42680)"}, "PAK1 (human)": {"target": "PAK1 (human) (UniProt Q13153)"}, "DYRK2 (human)": {"target": "DYRK2 (human) (UniProt Q92630)"}, "ADCK3 (human)": {"target": "ADCK3 (human) (UniProt Q8NI60)", "sequence (Q8NI60 whole entry, looked up)": "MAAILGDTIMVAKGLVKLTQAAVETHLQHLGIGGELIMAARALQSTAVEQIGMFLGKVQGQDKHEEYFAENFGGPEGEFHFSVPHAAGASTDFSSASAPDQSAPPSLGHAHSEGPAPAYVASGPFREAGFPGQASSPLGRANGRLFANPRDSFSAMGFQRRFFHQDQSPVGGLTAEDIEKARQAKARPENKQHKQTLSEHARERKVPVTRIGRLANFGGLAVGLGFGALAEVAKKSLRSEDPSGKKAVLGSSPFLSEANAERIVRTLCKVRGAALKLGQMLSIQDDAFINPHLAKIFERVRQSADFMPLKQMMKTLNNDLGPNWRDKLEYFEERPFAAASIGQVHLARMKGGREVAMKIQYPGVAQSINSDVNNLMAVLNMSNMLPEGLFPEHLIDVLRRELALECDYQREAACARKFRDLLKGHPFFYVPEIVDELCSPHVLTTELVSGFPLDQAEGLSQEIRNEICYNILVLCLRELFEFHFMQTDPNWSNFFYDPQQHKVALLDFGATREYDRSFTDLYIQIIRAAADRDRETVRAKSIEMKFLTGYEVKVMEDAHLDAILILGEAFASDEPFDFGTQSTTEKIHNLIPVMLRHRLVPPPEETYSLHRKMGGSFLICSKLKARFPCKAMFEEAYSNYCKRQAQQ"}, "MAP2K2 (human)": {"target": "MAP2K2 (human) (UniProt P36507)"}, "CDC42BPB (human)": {"target": "CDC42BPB (human) (UniProt Q9Y5S2)"}, "TGFBR1 (human)": {"target": "TGFBR1 (human) (UniProt P36897)", "sequence (P36897 whole entry, looked up)": "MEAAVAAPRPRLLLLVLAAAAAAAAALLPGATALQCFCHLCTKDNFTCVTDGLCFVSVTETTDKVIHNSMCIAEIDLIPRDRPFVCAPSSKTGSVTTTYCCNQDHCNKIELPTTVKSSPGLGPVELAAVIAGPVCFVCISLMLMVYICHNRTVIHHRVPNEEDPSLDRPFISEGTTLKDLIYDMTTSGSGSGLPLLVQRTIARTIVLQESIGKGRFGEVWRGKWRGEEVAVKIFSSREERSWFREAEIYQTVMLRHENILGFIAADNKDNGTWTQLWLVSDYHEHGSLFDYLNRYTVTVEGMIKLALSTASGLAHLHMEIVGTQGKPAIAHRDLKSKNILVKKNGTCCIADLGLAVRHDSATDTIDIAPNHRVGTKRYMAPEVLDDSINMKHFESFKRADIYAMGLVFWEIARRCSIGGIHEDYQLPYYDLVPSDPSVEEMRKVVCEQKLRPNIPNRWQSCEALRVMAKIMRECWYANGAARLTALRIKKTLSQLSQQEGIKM"}, "MAPK14 (human)": {"target": "MAPK14 (human) (UniProt Q16539)"}, "IGF1R (human)": {"target": "IGF1R (human) (UniProt P08069)"}, "SBK1 (human)": {"target": "SBK1 (human) (UniProt Q52WX2)"}, "[1]": {"tested_on": "MET (human), P08581 [M1250T]"}, "[2]": {"target": "JAK3 JH1 catalytic (human) (UniProt P52333)"}, "KIT (human)": {"target": "KIT (human) (UniProt P10721)"}, "DCLK2 (human)": {"target": "DCLK2 (human) (UniProt Q8N568)"}, "SGK3 (human)": {"target": "SGK3 (human) (UniProt Q96BR1)"}, "IRAK1 (human)": {"target": "IRAK1 (human) (UniProt P51617)"}, "EPHA2 (human)": {"target": "EPHA2 (human) (UniProt P29317)"}, "CDC42BPA (human)": {"target": "CDC42BPA (human) (UniProt Q5VT25)"}, "DMPK (human)": {"target": "DMPK (human) (UniProt Q09013)"}, "GRK7 (human)": {"target": "GRK7 (human) (UniProt Q8WTQ7)"}, "[3]": {"tested_on": "KIT (human), P10721 [A829P]"}, "PIP5K1C (human)": {"target": "PIP5K1C (human) (UniProt O60331)"}, "MARK1 (human)": {"target": "MARK1 (human) (UniProt Q9P0L2)"}, "ULK2 (human)": {"target": "ULK2 (human) (UniProt Q8IYT8)"}, "[4]": {"tested_on": "PIK3CA (human), P42336 [E542K]"}, "ICK (human)": {"target": "ICK (human) (UniProt Q9UPZ9)"}, "RPS6KA3 KD1 (human)": {"target": "RPS6KA3 KD1 (human) (UniProt P51812)", "sequence (P51812 whole entry, looked up)": "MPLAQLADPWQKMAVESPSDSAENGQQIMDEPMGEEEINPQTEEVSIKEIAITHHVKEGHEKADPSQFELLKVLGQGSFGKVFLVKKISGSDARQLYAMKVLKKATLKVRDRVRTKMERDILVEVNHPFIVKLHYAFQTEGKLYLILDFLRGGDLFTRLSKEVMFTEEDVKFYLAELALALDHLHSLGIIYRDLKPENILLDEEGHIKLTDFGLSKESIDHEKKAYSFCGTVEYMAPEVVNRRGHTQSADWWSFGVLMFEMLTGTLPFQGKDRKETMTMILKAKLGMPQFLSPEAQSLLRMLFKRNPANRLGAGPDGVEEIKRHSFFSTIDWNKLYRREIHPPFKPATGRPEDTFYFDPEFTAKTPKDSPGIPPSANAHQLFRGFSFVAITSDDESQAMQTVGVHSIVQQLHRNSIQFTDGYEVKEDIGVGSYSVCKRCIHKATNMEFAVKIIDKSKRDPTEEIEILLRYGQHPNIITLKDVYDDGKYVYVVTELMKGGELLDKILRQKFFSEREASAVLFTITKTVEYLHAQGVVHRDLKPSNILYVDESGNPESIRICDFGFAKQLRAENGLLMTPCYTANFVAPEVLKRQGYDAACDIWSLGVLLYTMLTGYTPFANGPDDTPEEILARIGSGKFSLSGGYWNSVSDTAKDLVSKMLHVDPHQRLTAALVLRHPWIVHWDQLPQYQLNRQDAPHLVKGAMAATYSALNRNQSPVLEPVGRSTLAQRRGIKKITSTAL"}, "STK36 (human)": {"target": "STK36 (human) (UniProt Q9NRP7)", "sequence (Q9NRP7 whole entry, looked up)": "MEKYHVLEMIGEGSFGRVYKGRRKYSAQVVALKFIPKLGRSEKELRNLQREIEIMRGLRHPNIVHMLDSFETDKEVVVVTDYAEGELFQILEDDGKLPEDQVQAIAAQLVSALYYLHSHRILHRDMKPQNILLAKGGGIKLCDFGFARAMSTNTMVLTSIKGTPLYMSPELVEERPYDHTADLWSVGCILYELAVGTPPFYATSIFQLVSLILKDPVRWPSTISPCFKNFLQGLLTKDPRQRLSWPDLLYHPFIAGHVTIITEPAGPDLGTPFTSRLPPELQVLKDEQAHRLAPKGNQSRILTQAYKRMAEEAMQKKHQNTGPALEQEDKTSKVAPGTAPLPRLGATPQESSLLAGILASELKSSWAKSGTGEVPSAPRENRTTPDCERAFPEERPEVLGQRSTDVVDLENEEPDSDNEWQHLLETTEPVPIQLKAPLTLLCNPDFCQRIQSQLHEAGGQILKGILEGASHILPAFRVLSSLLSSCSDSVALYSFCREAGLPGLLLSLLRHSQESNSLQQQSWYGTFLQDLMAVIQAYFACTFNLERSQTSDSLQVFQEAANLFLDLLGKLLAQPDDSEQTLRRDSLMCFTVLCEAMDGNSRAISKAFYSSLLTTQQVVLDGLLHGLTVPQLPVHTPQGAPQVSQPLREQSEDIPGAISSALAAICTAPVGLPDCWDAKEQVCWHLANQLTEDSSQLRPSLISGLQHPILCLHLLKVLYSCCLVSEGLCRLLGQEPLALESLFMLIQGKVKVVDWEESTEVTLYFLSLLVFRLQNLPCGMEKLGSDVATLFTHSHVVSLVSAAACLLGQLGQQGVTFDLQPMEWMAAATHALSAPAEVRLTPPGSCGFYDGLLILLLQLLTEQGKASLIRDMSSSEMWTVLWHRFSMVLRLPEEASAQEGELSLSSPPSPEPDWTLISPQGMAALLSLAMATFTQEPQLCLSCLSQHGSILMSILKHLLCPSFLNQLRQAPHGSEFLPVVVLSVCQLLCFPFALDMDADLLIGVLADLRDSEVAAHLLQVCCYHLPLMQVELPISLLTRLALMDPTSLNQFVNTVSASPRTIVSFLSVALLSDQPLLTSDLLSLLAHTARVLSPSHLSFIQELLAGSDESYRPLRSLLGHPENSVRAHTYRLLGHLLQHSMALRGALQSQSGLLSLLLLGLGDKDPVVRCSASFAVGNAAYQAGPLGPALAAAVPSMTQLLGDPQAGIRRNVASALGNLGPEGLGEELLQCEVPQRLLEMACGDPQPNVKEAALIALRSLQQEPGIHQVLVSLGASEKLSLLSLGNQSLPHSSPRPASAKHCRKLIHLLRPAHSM"}, "EPHA3 (human)": {"target": "EPHA3 (human) (UniProt P29320)"}},
  "data": [
    {"smiles": "COc1ccc(-c2ccc3c(N4CCOCC4)nc(N4C[C@@H](C)O[C@@H](C)C4)nc3n2)cc1CO", "values": [
      {"measurement": "kinase still bound, per cent of control", "setting": "NLK (human)", "value": 96, "unit": "%"},
      {"measurement": "kinase still bound, per cent of control", "setting": "FGFR3 (human)", "value": 100, "unit": "%"},
      {"measurement": "kinase still bound, per cent of control", "setting": "EPHA5 (human)", "value": 94, "unit": "%"},
      {"measurement": "kinase still bound, per cent of control", "setting": "MELK (human)", "value": 97, "unit": "%"},
      {"measurement": "kinase still bound, per cent of control", "setting": "DCLK3 (human)", "value": 100, "unit": "%"},
      {"measurement": "kinase still bound, per cent of control", "setting": "MST4 (human)", "value": 100, "unit": "%"},
      {"measurement": "kinase still bound, per cent of control", "setting": "INSRR (human)", "value": 100, "unit": "%"},
      {"measurement": "kinase still bound, per cent of control", "setting": "RPS6KA5 KD1 (human)", "value": 100, "unit": "%"},
      {"measurement": "kinase still bound, per cent of control", "setting": "PRKX (human)", "value": 100, "unit": "%"},
      {"measurement": "kinase still bound, per cent of control", "setting": "PLK3 (human)", "value": 92, "unit": "%"},
      {"measurement": "kinase still bound, per cent of control", "setting": "RPS6KA2 KD1 (human)", "value": 100, "unit": "%"},
      {"measurement": "per cent of control", "setting": "PRKACB (human)", "value": 96, "unit": "%"},
      {"measurement": "kinase still bound, per cent of control", "setting": "TEC (human)", "value": 92, "unit": "%"},
      {"measurement": "kinase still bound, per cent of control", "setting": "PAK1 (human)", "value": 84, "unit": "%"},
      {"measurement": "kinase still bound, per cent of control", "setting": "DYRK2 (human)", "value": 63, "unit": "%"},
      {"measurement": "kinase still bound, per cent of control", "setting": "ADCK3 (human)", "value": 87, "unit": "%"},
      {"measurement": "kinase still bound, per cent of control", "setting": "MAP2K2 (human)", "value": 92, "unit": "%"},
      {"measurement": "kinase still bound, per cent of control", "setting": "CDC42BPB (human)", "value": 81, "unit": "%"},
      {"measurement": "kinase still bound, per cent of control", "setting": "TGFBR1 (human)", "value": 100, "unit": "%"},
      {"measurement": "kinase still bound, per cent of control", "setting": "MAPK14 (human)", "value": 99, "unit": "%"},
      {"measurement": "per cent of control", "setting": "IGF1R (human)", "value": 100, "unit": "%"},
      {"measurement": "kinase still bound, per cent of control", "setting": "SBK1 (human)", "value": 100, "unit": "%"},
      {"measurement": "kinase still bound, per cent of control", "setting": "[1]", "value": 100, "unit": "%"},
      {"measurement": "kinase still bound, per cent of control", "setting": "[2]", "value": 100, "unit": "%"},
      {"measurement": "kinase still bound, per cent of control", "setting": "KIT (human)", "value": 87, "unit": "%"},
      {"measurement": "kinase still bound, per cent of control", "setting": "DCLK2 (human)", "value": 100, "unit": "%"},
      {"measurement": "kinase still bound, per cent of control", "setting": "SGK3 (human)", "value": 100, "unit": "%"},
      {"measurement": "kinase still bound, per cent of control", "setting": "IRAK1 (human)", "value": 100, "unit": "%"},
      {"measurement": "kinase still bound, per cent of control", "setting": "EPHA2 (human)", "value": 100, "unit": "%"},
      {"measurement": "kinase still bound, per cent of control", "setting": "CDC42BPA (human)", "value": 92, "unit": "%"},
      {"measurement": "kinase still bound, per cent of control", "setting": "DMPK (human)", "value": 86, "unit": "%"},
      {"measurement": "kinase still bound, per cent of control", "setting": "GRK7 (human)", "value": 100, "unit": "%"},
      {"measurement": "kinase still bound, per cent of control", "setting": "[3]", "value": 100, "unit": "%"},
      {"measurement": "kinase still bound, per cent of control", "setting": "PIP5K1C (human)", "value": 100, "unit": "%"},
      {"measurement": "kinase still bound, per cent of control", "setting": "MARK1 (human)", "value": 100, "unit": "%"},
      {"measurement": "kinase still bound, per cent of control", "setting": "ULK2 (human)", "value": 100, "unit": "%"},
      {"measurement": "kinase still bound, per cent of control", "setting": "[4]", "value": 2.8, "unit": "%"},
      {"measurement": "kinase still bound, per cent of control", "setting": "ICK (human)", "value": 100, "unit": "%"},
      {"measurement": "kinase still bound, per cent of control", "setting": "RPS6KA3 KD1 (human)", "value": 99, "unit": "%"},
      {"measurement": "kinase still bound, per cent of control", "setting": "STK36 (human)", "value": 92, "unit": "%"},
      {"measurement": "kinase still bound, per cent of control", "setting": "EPHA3 (human)", "value": 90, "unit": "%"}
    ]}
  ]
}
